Source: US11648233B2, “Heripenes with pain-relieving effect, active substances of Hericium erinaceus mycelium and the preparation method thereof, and pharmaceutical composition containing the heripenes or active substances” (GRAPE KING BIO LTD., priority 2015, dated 2023)

Test system: P2R (P2-purinoceptor) in human osteosarcoma HOS cells
Test: Inhibition of ATP-induced P2R calcium signals (Fura-2 fluorescence) in HOS cells
Assay type: cell-based
Details: erinacine S 5, 10 and 15 μg/ml (FIG. 7B)
Protocol: Cells were filled with a fluorescent dye-based calcium indicator, “Fura-2, AM cell permeant” (ThermoFisher Scientific, Waltham, Mass., U.S.A.), and the variation of the fluorescence level at an emission wavelength of 505 nm was determined at two excitation wavelengths of 340 nm and 380 nm using a fluorescence spectrometer (SPEX® 1681, Spec Industries, Inc., New Jersey, U.S.A.). During the experiment, ATP was added to cells to stimulate the P2R expression, and the variation of the fluorescence level was observed. Finally, 1 wt. % digitonin was added to enable the cells to become transparent, and the maximum fluorescence ratio (Rmax) was obtained at a concentration of 2 mM Ca^2+. Ethyleneglycol bis(2-aminoethylether)tetraacetic acid (EGTA) then was added to chelate with the calcium ions to obtain a minimum fluorescence ratio (Rmin). The dissociation coefficient (Kd) of fura-2 to Ca^2+ is 225 nM. The intracellular calcium-ion concentration was calculated using formulas (Grynkiewicz et al., J. Biol. Chem. 1985. 260(6):3440-3450). […]
Comparing the P2R-correlated calcium signals in three cell lines stimulated with ATP, the variation of the calcium-ion concentration in human osteosarcoma HOS cells was the most significant, and thus the influence of the agent on P2R can clearly be determined. […]

CC(C)C1=C2C3CCC4=C(O)C(=O)C5(O)COC6OC(C4C65O)C3(C)CCC2(C)CC1 (stereo not shown) [erinacine S]
inhibition effect on the variation of the intracellular calcium-ion concentration induced by ATP: more significant in a dosage-dependent manner
